Several values for one entry are separate records, joined by “and”; a condition that tells them apart may be missing. Equal values may be shown once.

Data set [1] relates to electrical kindling model of epilepsy. The note with it: cited from earlier work.
Data set [2] relates to PTZ-induced seizure model. Details: method as in PMID 27853355. The note with it: Sadek's study; cited from earlier work.
The nature of data set [3]: Rotarod test for neurotoxicity. It is filed as in vivo. The note with it: rotarod test, mice, i.p., three animals per group. The method, then: A rotarod test was carried out to estimate the neurological safety of compounds 2h, 4a, and 4b.
(§1) The neurological safety of the compounds 2h, 4a, and 4b was evaluated by the rotarod test. In the MES test, the definition of protection was the reduction or vanishing of the THLE in mice. In the PTZ test, the seizures were induced through the subcutaneous administration of PTZ (85 mg/kg). The antiseizure activities of the compounds in the PTZ test were evaluated by comparing the convulsion scores in mice between taking the compounds or not. VPA and PIT were used as positive drugs. To explore the anticonvulsive mechanism, compound 4a (10 mg/kg) was co-injected with RAMH (10 mg/kg). In addition, the THLE was recorded and compared with that of the mice treated by compound 4a alone. The detailed experimental operations in the MES, PTZ, and rotarod tests refer to our previous paper. All the animal experiments were carried out on 4-week-old KunMing male mice weighing from 20 to 25 g. The mice were housed collectively in polycarbonate cages in groups of 30, where they were maintained on a 12 h light/dark cycle in a temperature controlled (25 ± 2 °C) laboratory with free access to food and water. In the MES and PTZ models, seven animals were used in each group. In the rotarod test, three animals were used in each group. Each animal was used only once. All the experiments referring to animals were applied according to the Guide for the Care and Use of Laboratory Animals and were approved by the Medical Ethics Committee of Jinggangshan University, approval number: 220811002.

For another data set, the system named is photosensitive epilepsy. Conditions: dose of 30 mg or 60 mg; cited from earlier work.
For data set [4], the system named is maximal electroshock seizure (MES) model. Also on record: method as in PMID 33325568. Conditions: 10 mg/kg, previous work; cited from earlier work.
The test system of data set [5] is PTZ-induced seizure model. Nature of the data set: Pentylenetetrazole (PTZ)-induced seizure model. It is filed as in vivo. The note with it: mice, i.p., PTZ 85 mg/kg s.c. The procedure: One of the two test models is the MES seizure model, another is the PTZ-induced seizure model. […] In addition, the administration of this dosage can minimize the impact of other possible side effects such as central inhibition and cardiac toxicity. […] In addition, the tested dose of VPA was 300 mg/kg. The PTZ model was usually used to screen the antiepileptic candidates for the absence of seizures. In this work, compounds 2a-2i, 3a-3c, and 4a-4b were also evaluated for their antiseizure action in the PTZ model in mice, while using VPA as the positive drug. […] The failure of synthesized compounds in the PTZ model is expected because our previously reported H3R inhibitors were also ineffective in the PTZ model. […] A considerable increase in histamine levels was found in the brain after MES-induced seizures, whereas a tendency toward a decrease in histamine levels was observed after PTZ-kindled convulsions. […] The neurological safety of the compounds 2h, 4a, and 4b was evaluated by the rotarod test. In the MES test, the definition of protection was the reduction or vanishing of the THLE in mice. […] The antiseizure activities of the compounds in the PTZ test were evaluated by comparing the convulsion scores in mice between taking the compounds or not. […] In addition, the THLE was recorded and compared with that of the mice treated by compound 4a alone. […]

Data set [6] relates to maximal electroshock seizure (MES) model. Nature of the data set: Maximal electroshock seizure (MES) model. It is filed as in vivo. Conditions: mice; for Duration of tonic hind limb extension (THLE), protection in MES model: i.p., compared to control group. The method, then: as §1, with “One of the two test models is the MES seizure model, another is the PTZ-induced seizure model. […] In addition, the administration of this dosage can minimize the impact of other possible side effects such as central inhibition and cardiac toxicity. […] In addition, the tested dose of VPA was 300 mg/kg. It could be seen that all animals in the control group experienced hindlimb stiffness after the electrical stimulation in the MES model. In the treated group, the definition of protection was the reduction or vanishing of the tonic hind limb extension (THLE) in mice. […] The neurological” for “The neurological”
A general note: In the maximal electroshock model the usual endpoint is tonic extension of the hind limbs.

As for `Clc1ccc(CCCOCCCN2CCCCC2)cc1` [PIT, Pitolisant, reference compound], the “Antiseizure activity in electrical kindling model” value in data set [1] is reported as “powerful antiseizure activity”. The “Effect in PTZ model” value in data set [2] is on record as “failure”. Besides, the Neurotoxicity in data set [3] (10 mg/kg) was 0/3; in data set [3] (30 mg/kg), 0/3; in data set [3] (100 mg/kg, 100 mg/kg), “no neurotoxicity and 0/3”. Moreover, the “Effect on photosensitive epilepsy and EEG” value in the data set with photosensitive epilepsy was “can inhibit photosensitive epilepsy”. The Antiseizure activity result in data set [4] is reported as “showed an antiseizure activity”. In addition, the “Protection against seizures induced by PTZ (seizure score)” value in data set [5] (10 mg/kg) is “did not exhibit protection”. In data set [6] (10 mg/kg), the “Duration of tonic hind limb extension (THLE), protection in MES model” value is “decreased the duration of THLE significantly”. In addition, the “THLE induced by MES” value in data set [6] (30 mg/kg) was “fully abolished the THLE”. In addition, the “Dose dependence of protection in MES model” value in data set [6] (doses of 3, 10 and 30 mg/kg) is reported as “dose-dependent antiseizure activity”.

`CCCC(CCC)C(=O)[O-].[Na+]` [VPA, valproic sodium, reference compound]: the “Protection against seizures induced by PTZ (seizure score)” value in data set [5] (300 mg/kg) is “fully inhibited the seizure induced by PTZ”. For the same compound, the “Duration of tonic hind limb extension (THLE), protection in MES model” value in data set [6] (300 mg/kg) was “decreased the duration of THLE significantly”.
